From patent US9758492B2, “IDO inhibitors” (Bristol-Myers Squibb Company, priority 2013, dated 2017)

What follows are molecules tested against T1, Human IDO1 (Homo sapiens, UniProt P14902) (assay: IDO Kynurenine Assay with Human IDO1/HEK293 Cells). Conditions: read-out: HEK human IDO-1 (IC50).
T1 construct: expressed in transfected cells; host or cells: HEK293
Assay type: cell-based
Description: IDO Kynurenine Assay with Human IDO1/HEK293 Cells
Human IDO1/HEK293 cells were seeded at 10,000 cells per 50 uL per well with RPMI/phenol red free media contains 10% FBS in a 384-well black wall clear bottom tissue culture plate (Matrix Technologies LLC) 125 nL of certain concentration of compound was then added to each well using ECHO liquid handling systems. The cells were incubated for 20 hours in 37° C. incubator with 5% CO2.
The compound treatments were stopped by adding Trichloroacetic Acid (Sigma-Aldrich) to a final concentration at 0.2%. The cell plate was further incubated at 50° C. for 30 minute. The equal volume supernatant (20 uL) and 0.2% (w/v) Ehrlich reagent (4-dimethylaminobenzaldehyde, Sigma-Aldrich) in glacial acetic acid were mixed in a new clear bottom 384-well plate. This plate was then incubated at room temperature for 30 minute. The absorbance at 490 nm was measured on Envision plate reader.
Compound IC50 values were calculated using the counts of 500 nM of a reference standard treatment as one hundred percent inhibition, and counts of no compound but DMSO treatment as zero percent inhibition.

T1 sequence (P14902 whole entry): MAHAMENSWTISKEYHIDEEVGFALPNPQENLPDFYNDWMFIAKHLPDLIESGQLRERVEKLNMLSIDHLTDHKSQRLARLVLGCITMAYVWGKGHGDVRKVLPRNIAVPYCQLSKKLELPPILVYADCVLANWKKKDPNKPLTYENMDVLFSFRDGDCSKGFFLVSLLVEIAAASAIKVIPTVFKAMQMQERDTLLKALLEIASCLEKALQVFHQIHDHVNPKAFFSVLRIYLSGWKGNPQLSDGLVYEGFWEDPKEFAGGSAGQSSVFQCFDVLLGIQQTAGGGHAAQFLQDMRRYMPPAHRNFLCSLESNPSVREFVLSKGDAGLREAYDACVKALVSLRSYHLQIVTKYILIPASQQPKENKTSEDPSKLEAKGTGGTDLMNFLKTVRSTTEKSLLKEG

Question: Which IC50 does the source give for `CCOc1ccc(NC(=O)Nc2cc(-c3ccccc3-c3nnn[nH]3)c(F)cc2N(CC(C)C)C2CCC(F)(F)CC2)cc1` [Example 539, 1-(4-((4,4-Difluorocyclohexyl)(isobutyl)amino)-6-fluoro-2′-(1H-tetrazol-5-yl)-[1,1′-biphenyl]-3-yl)-3-(4-ethoxyphenyl)urea] here?
Answer: 3.3 nM

Question: For `CCOc1ccc(NC(=O)Nc2cc(-c3ccccc3-c3nnn[nH]3)ccc2N(C2CC2)C2CC2)cc1` [Example 544], which IC50 is on record?
Answer: 1740 nM

Question: With `Cc1ccc(NC(=O)Nc2cc(-c3ccccc3-c3nnn[nH]3)ccc2N(CC(C)C)CC(C)C)cn1` [Example 395] as the molecule, how does the IC50 read?
Answer: 70 nM

Question: `CC(C)CN(CC(C)C)c1ccc(-c2ccc(Cl)cc2C(=O)O)cc1NC(=O)Nc1ccc(C#N)nc1` [Example 359, 4-Chloro-3′-(3-(6-cyanopyridin-3-yl)ureido)-4′-(diisobutylamino)-[1,1′-biphenyl]-2-carboxylic acid] was tested. Which IC50 did it give?
Answer: 550 nM

Question: For `Cc1cc(NC(=O)Nc2cc(-c3cccc(C)c3C(=O)O)ccc2N(CC(C)C)CC(C)C)on1` [Example 535, 4′-(Diisobutylamino)-3-methyl-3′-(3-(3-methylisoxazol-5-yl)ureido)-[1,1′-biphenyl]-2-carboxylic acid], which IC50 is on record?
Answer: 140 nM

Question: Which IC50 does the source give for `CC(C)CN(CC(C)C)c1ccc(-c2ccccc2-c2nnn[nH]2)cc1NC(=O)Nc1ccc(CC#N)cc1` [Example 457] here?
Answer: 370 nM

Question: How did the IC50 turn out when `CC(C)CN(c1cc(F)c(-c2ccccc2-c2nnn[nH]2)cc1NC(=O)Nc1ccccc1F)C1CCC(F)(F)CC1` [Example 537, 1-(4-((4,4-Difluorocyclohexyl)(isobutyl)amino)-6-fluoro-2′-(1H-tetrazol-5-yl)-[1,1′-biphenyl]-3-yl)-3-(2-fluorophenyl)urea] was run?
Answer: 6.08 nM

Question: `Cc1cc(NC(=O)Nc2cc(-c3cc(F)ccc3C(=O)O)c(F)cc2N(CC(C)C)[C@@H]2C[C@H]3CC[C@@H]2C3)no1` [Example 385] was tested. Which IC50 did it give?
Answer: 200 nM

Question: `Cc1ccc(C(=O)O)c(-c2ccc(N(CC(C)C)CC(C)C)c(NC(=O)Nc3ccc(Cl)cc3F)c2)c1` [Example 527, 3′-(3-(4-Chloro-2-fluorophenyl)ureido)-4′-(diisobutylamino)-5-methyl-[1,1′-biphenyl]-2-carboxylic acid] was tested. Which IC50 did it give?
Answer: 40 nM

Question: `Cc1ccc(NC(=O)Nc2cc(-c3ccccc3-c3nnn[nH]3)c(F)cc2N(CC(C)C)C2CCC(F)(F)CC2)cc1` [Example 534, 1-(4-((4,4-Difluorocyclohexyl)(isobutyl)amino)-6-fluoro-2′-(1H-tetrazol-5-yl)-[1,1′-biphenyl]-3-yl)-3-(p-tolyl)urea] was tested. Which IC50 did it give?
Answer: 3.05 nM

Question: `CC(C)CN(c1cc(F)c(-c2cc(F)ccc2C(=O)O)cc1NC(=O)Nc1cc(C(F)(F)F)no1)C1CCCCC1` [Example 393] was tested. Which IC50 did it give?
Answer: 2.07 nM

Question: Which IC50 does the source give for `CCC(CC)N(CC(C)C)c1ccc(-c2ccccc2C(=O)O)cc1NC(=O)Nc1ccc(C)cc1` [Example 443] here?
Answer: 10 nM

Question: For `CC(C)CN(c1cc(F)c(-c2cc(F)ccc2C(=O)O)cc1NC(=O)Nc1ccc2nccnc2c1)C1CCCCC1` [Example 403], which IC50 is on record?
Answer: 2.32 nM

Question: Which IC50 does the source give for `COc1cccc(-c2ccc(N(CC(C)C)CC(C)C)c(NC(=O)Nc3ccc(C#N)nc3)c2)c1C(=O)O` [Example 499] here?
Answer: 1260 nM

Question: `Cc1ccc(NC(=O)Nc2cc(-c3cccc(Cl)c3C(=O)O)ccc2N(CC(C)C)CC(C)C)cc1` [Example 492] was tested. Which IC50 did it give?
Answer: 160 nM

Question: Which IC50 does the source give for `CC(C)CN(CC(C)C)c1ccc(-c2ccccc2-c2nnn[nH]2)cc1NC(=O)Nc1ccc2c(c1)CCC2` [Example 458] here?
Answer: 140 nM

Question: `CC(C)CN(c1ccc(-c2cc(F)ccc2C(=O)O)cc1NC(=O)Nc1ccc2nn(C)cc2c1)C1CCCCC1` [Example 409] was tested. Which IC50 did it give?
Answer: 110 nM

Question: How did the IC50 turn out when `CCC(CC)N(CC(C)C)c1ccc(-c2ccccc2C(=O)O)cc1NC(=O)Nc1ccc(Cl)cc1F` [Example 440] was run?
Answer: 1.55 nM

Question: For `Cc1cccc(-c2ccc(N(CC(C)C)CC(C)C)c(NC(=O)Nc3ccc(OC(F)(F)F)cc3)c2)c1C(=O)O` [Example 309, 4′-(Diisobutylamino)-3-methyl-3′-(3-(4-(trifluoromethoxy)phenyl)ureido)-[1,1′-biphenyl]-2-carboxylic acid], which IC50 is on record?
Answer: 4 nM

Question: `CC(C)CN(c1cc(F)c(-c2cc(F)ccc2C(=O)O)cc1NC(=O)Nc1ccc2nccn2c1)C1CCCCC1` [Example 404] was tested. Which IC50 did it give?
Answer: 2560 nM

Question: For `CC(C)CN(c1cc(F)c(-c2ccccc2-c2nnn[nH]2)cc1NC(=O)Nc1ccc2c(c1)OCO2)C1CCC(F)(F)CC1` [Example 532, 1-(Benzo[d][1,3]dioxol-5-yl)-3-(4-((4,4-difluorocyclohexyl)(isobutyl)amino)-6-fluoro-2′-(1H-tetrazol-5-yl)-[1,1′-biphenyl]-3-yl)urea], which IC50 is on record?
Answer: 4.82 nM

Question: `Cc1ccc(NC(=O)Nc2cc(-c3ccccc3-c3nnn[nH]3)ccc2N(CCCC(F)(F)F)C2CCCCC2)cc1` [Example 467] was tested. Which IC50 did it give?
Answer: 10 nM

Question: Which IC50 does the source give for `COCCN(c1ccc(-c2ccccc2C(=O)O)cc1NC(=O)Nc1ccc(Cl)cc1F)C1CCCCC1` [Example 456] here?
Answer: 0.863 nM

Question: With `Cc1ccc(NC(=O)Nc2cc(-c3cccc(OC(F)(F)F)c3C(=O)O)ccc2N(CC(C)C)CC(C)C)cc1` [Example 495] as the molecule, how does the IC50 read?
Answer: 50 nM

Question: How did the IC50 turn out when `Cc1ccc(NC(=O)Nc2cc(-c3ccccc3-c3nnn[nH]3)ccc2N(CCOC(C)C)CC(C)C)cc1` [Example 465] was run?
Answer: 200 nM

Question: With `CC(C)CN(CC(C)C)c1ccc(-c2ccccc2-c2nnn[nH]2)cc1NC(=O)Nc1ccc(OC(F)F)cc1` [Example 453] as the molecule, how does the IC50 read?
Answer: 9.9 nM

Question: Which IC50 does the source give for `CC(C)CN(c1cc(F)c(-c2cc(F)ccc2C(=O)O)cc1NC(=O)Nc1ccc(C(F)(F)F)cc1F)C1CCCCC1` [Example 392] here?
Answer: 10 nM

Question: `CC(C)CN(CC(C)C)c1ccc(-c2ccccc2-c2nnn[nH]2)cc1NC(=O)Nc1cc(C(F)(F)F)no1` [Example 398] was tested. Which IC50 did it give?
Answer: 9.69 nM

Question: Which IC50 does the source give for `CC(C)CN(c1c(F)cc(-c2ccccc2-c2nnn[nH]2)cc1NC(=O)Nc1ccc(Cl)cc1F)C1CCCCC1` [Example 436] here?
Answer: 1.16 nM

Question: For `CCC(CC)N(CC(C)C)c1ccc(-c2cc(F)ccc2C(=O)O)cc1NC(=O)Nc1ccc(C)cc1` [Example 439], which IC50 is on record?
Answer: 10 nM

Question: How did the IC50 turn out when `Cc1cc(NC(=O)Nc2cc(-c3ccccc3C(=O)O)ccc2N(CC(C)C)C2CCCCC2)on1` [Example 377] was run?
Answer: 1.68 nM

Question: `CC(C)CN(c1cc(F)c(-c2cc(F)ccc2C(=O)O)cc1NC(=O)Nc1ccc(N2CCOCC2)cc1)C1CCCCC1` [Example 524, 4′-(Cyclohexyl(isobutyl)amino)-2′,5-difluoro-5′-(3-(4-morpholinophenyl)ureido)-[1,1′-biphenyl]-2-carboxylic acid] was tested. Which IC50 did it give?
Answer: 2720 nM

Question: How did the IC50 turn out when `CC(C)CN(c1ccc(-c2cc(F)ccc2C(=O)O)cc1NC(=O)Nc1cnc2c(c1)ncn2C)C1CCCCC1` [Example 487] was run?
Answer: 1050 nM

Question: With `CCC(CC)N(CC(C)C)c1ccc(-c2ccccc2-c2nnn[nH]2)cc1NC(=O)Nc1ccc(Cl)cc1F` [Example 441] as the molecule, how does the IC50 read?
Answer: 1.14 nM

Question: Which IC50 does the source give for `COC(C)(C)CCN(c1ccc(-c2ccccc2C(=O)O)cc1NC(=O)Nc1ccc(C)cc1)C1CCCCC1` [Example 420] here?
Answer: 5250 nM

Question: `CC(C)CN(c1ccc(-c2cc(F)ccc2C(=O)O)cc1NC(=O)Nc1ccc2nccn2c1)C1CCCCC1` [Example 407] was tested. Which IC50 did it give?
Answer: 3110 nM

Question: With `CCC(CC)N(CC(C)C)c1ccc(-c2ccccc2C(=O)O)cc1NC(=O)Nc1ccccc1F` [Example 448] as the molecule, how does the IC50 read?
Answer: 1.56 nM

Question: Which IC50 does the source give for `Cc1cc(NC(=O)Nc2cc(-c3ccccc3-c3nnn[nH]3)ccc2N(CC(C)C)CC(C)C)on1` [Example 396] here?
Answer: 6.07 nM

Question: `Cc1ccc(NC(=O)Nc2cc(-c3cc(F)ccc3C(=O)O)cc(F)c2N(CC(C)C)C2CCCCC2)cc1` [Example 435] was tested. Which IC50 did it give?
Answer: 3 nM

Question: How did the IC50 turn out when `COc1ccc(-c2ccc(N(CC(C)C)CC(C)C)c(NC(=O)Nc3ccc(C)cc3)c2)c(C(=O)O)c1` [Example 497] was run?
Answer: 230 nM
